These results are taken from patent US20240189385A1, “KEAP1/NRF2 PROTEIN-LIKE POLYMERS” (Northwestern University, priority 2021, published 2024).

Ends that are not written are not given here.

The assay relates to Antioxidant Response Element (ARE), Nrf2 antioxidant pathway. The experiment in a line: Antioxidant Response Element (ARE) luciferase reporter assay. The assay is classed as cell-based. The conditions noted are these: 0 μM to 50 μM with respect to peptide; 24 hours; FIGS. 38A, 38B. Here is the method: The Antioxidant Response Element (ARE) Luciferase Reporter HepG2 Cell line was used to probe Nrf2 antioxidant pathway activation. ARE-HepG2 cells were cultured in growth media (BPS bioscience) according to manufacturer's recommendations. […] PLPs and peptides were tested at concentrations ranging from 0 μM to 50 μM with respect to peptide along with controls (untreated and tBHQ positive control at 100 μM) in triplicate. Cells were incubated for 24 hours post-treatment. ONE-step luciferase assay reagent was added at 100 μL/well, followed by rocking at room temperature for 15 min. Luminescence was assessed using a Biotek SynergyNeo2 plate reader. Background luminescence of cell free controls wells was subtracted from test wells. ARE activation was reported as luminescence relative to the average of the untreated controls wells.
As for `CC(C)C[C@H](NC(=O)[C@H](Cc1ccccc1)NC(=O)[C@H](CCC(=O)O)NC(=O)CNC(=O)[C@@H](NC(=O)[C@H](CCC(=O)O)NC(=O)[C@@H]1CCCN1C(=O)[C@H](CC(=O)O)NC(=O)[C@@H](N)CC(C)C)[C@@H](C)O)C(=O)N[C@@H](CCCNC(=N)N)C(=O)N[C@@H](CCCNC(=N)N)C(=O)N[C@@H](CCCNC(=N)N)C(=O)N[C@@H](CCCNC(=N)N)C(N)=O` [SEQ ID NO: 72], the ARE activation result is reported as “did not activate ARE”. For “Full Scramble PLP: full scramble polynorbornene dicarboxyimide-based brush polymer comprising SEQ ID NO: 143 (DERLERPLTRGFR) peptide monomer, Example 13 (also: part of polynorbornene dicarboxyimide-based brush polymer) [reference compound]”, the ARE activation entry is reported as “did not activate ARE”. On to “ScrambleR PLP: scrambleRRRR polynorbornene dicarboxyimide-based brush polymer comprising SEQ ID NO: 146 (DELEPLTGFRRRR) peptide monomer, Example 14 (also: part of polynorbornene dicarboxyimide-based brush polymer) [reference compound]”, for which the ARE activation result is recorded as “did not activate ARE”.
